Results taken from patent publication US8883792B2, “Substituted isoquinoline derivative” (D. Western Therapeutics Institute, Inc., priority 2010, dated 2014).
Where a name gives a salt, the structure may show the parent alone.

System: rabbits (New Zealand White)
Experiment: Ocular hypotensive effect in rabbits
Assay type: in vivo, rabbit
Conditions: male New Zealand White rabbits, 0.04 mL eye drop, concentration of 1% (w/v) or lower, maximum ocular hypotensive rate vs vehicle-treated contralateral eye
Experimental: The compound of the present invention was administered to rabbits (New Zealand White, sex: male, 3 to 6 per group) and evaluated for its ocular hypotensive effect.
Each test compound was dissolved in a vehicle 1 (1.04 g of sodium dihydrogen phosphate dihydrate and 0.5 g of sodium chloride dissolved in purified water and then adjusted to pH 7.0 with sodium hydroxide to make the total amount to 100 mL) or a vehicle 2 (2% (w/v) aqueous boric acid solution) to prepare a test compound solution with a predetermined concentration.
The intraocular pressures of the rabbits were measured using Tiolat TonoVet handheld tonometer immediately before administration of test compound. The test compound solution and the vehicle were dropped at a volume of 0.04 mL to one eye and the contralateral eye, respectively, and the intraocular pressures were measured over time in the same way as above. The rate of the intraocular pressure of the eye receiving the test compound solution to that of the eye receiving the vehicle was calculated as an ocular hypotensive rate.

SMILES | Ocular hypotensive activity
C[C@H](CNC1Cc2ccccc2C1)NS(=O)(=O)c1ccc2cnccc2c1.Cl [Example 62, (R)—N-{1-(2,3-dihydro-1H-inden-2-ylamino)propan-2-yl}isoquinoline-6-sulfonamide hydrochloride] | ++ (maximum ocular hypotensive rate of 15% or more)
COc1cccc(CCNC[C@@H](C)NS(=O)(=O)c2ccc3cnccc3c2)c1 [Example 29, (R)—N-{1-(3-methoxyphenethylamino)propan-2-yl}isoquinoline-6-sulfonamide dihydrochloride] | ++ (maximum ocular hypotensive rate of 15% or more)
Cc1cncc2ccc(S(=O)(=O)N[C@H](C)CNCCc3ccc(F)cc3)cc12.Cl [Example 113, (R)—N-{1-(4-fluorophenethylamino)propan-2-yl}-4-methyl-isoquinoline-6-sulfonamide hydrochloride] | ++ (maximum ocular hypotensive rate of 15% or more)
CC=CCNC[C@@H](C)NS(=O)(=O)c1ccc2cnccc2c1 [Example 7, (R)—N-{1-(but-2-enylamino)propan-2-yl}isoquinoline-6-sulfonamide dihydrochloride] | ++ (maximum ocular hypotensive rate of 15% or more)
C[C@H](CNCCc1cc2ccccc2[nH]1)NS(=O)(=O)c1ccc2cnccc2c1.Cl [Example 74, (R)—N-[1-{2-(1H-indol-2-yl)ethylamino}propan-2-yl]isoquinoline-6-sulfonamide hydrochloride] | ++ (maximum ocular hypotensive rate of 15% or more)
C[C@H](CNC[C@@H](C)c1ccccc1)NS(=O)(=O)c1ccc2cnccc2c1 [Example 26, N—[(R)-1-{(S)-2-phenylpropylamino}propan-2-yl]isoquinoline-6-sulfonamide dihydrochloride] | ++ (maximum ocular hypotensive rate of 15% or more)
C[C@H](CNCCc1c[nH]c2ccc(Cl)cc12)NS(=O)(=O)c1ccc2cnccc2c1.Cl [Example 63, (R)—N-[1-{2-(5-chloro-1H-indol-3-yl)ethylamino}propan-2-yl]isoquinoline-6-sulfonamide hydrochloride] | + (maximum ocular hypotensive rate of 5% or more and less than 15%)
CCCCNC[C@@H](C)N(CC)S(=O)(=O)c1ccc2cnccc2c1.Cl [Example 96, (R)—N-[1-(butylamino)propan-2-yl]-N-ethylisoquinoline-6-sulfonamide hydrochloride] | ++ (maximum ocular hypotensive rate of 15% or more)
COc1ccc(CCNC[C@@H](C)NS(=O)(=O)c2ccc3cnccc3c2)cc1 [Example 30, (R)—N-{1-(4-methoxyphenethylamino)propan-2-yl}isoquinoline-6-sulfonamide dihydrochloride] | ++ (maximum ocular hypotensive rate of 15% or more)
C[C@H](CNCC[C@@H](O)c1ccccc1)NS(=O)(=O)c1ccc2cnccc2c1.Cl [Example 50, N—[(R)-1-{(R)-3-hydroxy-3-phenylpropylamino}propan-2-yl]isoquinoline-6-sulfonamide hydrochloride] | + (maximum ocular hypotensive rate of 5% or more and less than 15%)
CCCNC[C@@H](C)NS(=O)(=O)c1ccc2cnccc2c1 [Example 4, (R)—N-{1-(propylamino)propan-2-yl}isoquinoline-6-sulfonamide dihydrochloride] | ++ (maximum ocular hypotensive rate of 15% or more)
C[C@H](CNCCc1ccc(Br)cc1)NS(=O)(=O)c1ccc2cnccc2c1.Cl [Example 55, (R)—N-{1-(4-bromophenethylamino)propan-2-yl}isoquinoline-6-sulfonamide hydrochloride] | ++ (maximum ocular hypotensive rate of 15% or more)
C=CCNC[C@@H](C)NS(=O)(=O)c1ccc2cnccc2c1 [Example 9, (R)—N-{1-(allylamino)propan-2-yl}isoquinoline-6-sulfonamide dihydrochloride] | ++ (maximum ocular hypotensive rate of 15% or more)
CCC(C)CNC[C@@H](C)NS(=O)(=O)c1ccc2cnccc2c1 (stereo partly drawn) [Example 20, N-(2R)-{1-(methylbutylamino)propan-2-yl}isoquinoline-6-sulfonamide hydrochloride] | ++ (maximum ocular hypotensive rate of 15% or more)
C[C@H](CNCCc1ccc(F)cc1)NS(=O)(=O)c1cc2ccncc2cc1Br.Cl [Example 76, (R)-7-bromo-N-{1-(4-fluorophenethylamino)propan-2-yl}-isoquinoline-6-sulfonamide hydrochloride] | ++ (maximum ocular hypotensive rate of 15% or more)
C[C@H](CNCCc1cn(C)c2ccccc12)NS(=O)(=O)c1ccc2cnccc2c1.Cl [Example 64, (R)—N-[1-{2-(1-methyl-1H-indol-3-yl)ethylamino}propan-2-yl]isoquinoline-6-sulfonamide hydrochloride] | ++ (maximum ocular hypotensive rate of 15% or more)

SMILES | Ocular hypotensive activity
C[C@H](CNCCc1ccsc1)NS(=O)(=O)c1ccc2cnccc2c1.Cl [Example 41, (R)—N-[1-{2-(thiophen-3-yl)ethylamino}propan-2-yl]isoquinoline-6-sulfonamide hydrochloride] | ++ (maximum ocular hypotensive rate of 15% or more)
CCCCCCNC[C@@H](C)NS(=O)(=O)c1ccc2cnccc2c1 [Example 22, (R)—N-{1-(hexylamino)propan-2-yl}isoquinoline-6-sulfonamide dihydrochloride] | ++ (maximum ocular hypotensive rate of 15% or more)
Cc1cncc2ccc(S(=O)(=O)N[C@H](C)CNCCc3ccccc3)cc12.Cl [Example 112, (R)—N-{1-(phenethylamino)propan-2-yl}-4-methyl-isoquinoline-6-sulfonamide hydrochloride] | ++ (maximum ocular hypotensive rate of 15% or more)
C[C@H](CNCCc1ccc(Cl)cc1)NS(=O)(=O)c1ccc2cnccc2c1 [Example 39, (R)—N-{1-(4-chlorophenethylamino)propan-2-yl}isoquinoline-6-sulfonamide dihydrochloride] | ++ (maximum ocular hypotensive rate of 15% or more)
C[C@H](CNC/C=C/c1ccccc1)NS(=O)(=O)c1ccc2cnccc2c1 [Example 44, (R, E)-N-{1-(cinnamylamino)propan-2-yl}isoquinoline-6-sulfonamide dihydrochloride] | + (maximum ocular hypotensive rate of 5% or more and less than 15%)
C[C@H](CNCCc1ccc(F)cc1)NS(=O)(=O)c1ccc2cnccc2c1Br.Cl [Example 77, (R)-5-bromo-N-{1-(4-fluorophenethylamino)propan-2-yl}-isoquinoline-6-sulfonamide hydrochloride] | + (maximum ocular hypotensive rate of 5% or more and less than 15%)
C[C@H](CNCCc1ccccc1)N(CCO)S(=O)(=O)c1ccc2cnccc2c1 [Example 97, (R)—N-(2-hydroxyethyl)-N-{1-(phenethylamino)propan-2-yl}isoquinoline-6-sulfonamide dihydrochloride] | ++ (maximum ocular hypotensive rate of 15% or more)
C[C@H](CNCCOc1ccccc1)NS(=O)(=O)c1ccc2cnccc2c1 [Example 45, (R)—N-{1-(2-phenoxyethylamino)propan-2-yl}isoquinoline-6-sulfonamide dihydrochloride] | ++ (maximum ocular hypotensive rate of 15% or more)
C[C@H](CNCCCc1c[nH]c2ccccc12)NS(=O)(=O)c1ccc2cnccc2c1 [Example 80, (R)—N-[1-{3-(1H-indol-3-yl)propylamino}propan-2-yl]isoquinoline-6-sulfonamide dihydrochloride] | ++ (maximum ocular hypotensive rate of 15% or more)
C[C@H](CNCCc1cccs1)NS(=O)(=O)c1ccc2cnccc2c1.Cl [Example 40, (R)—N-[1-{2-(thiophen-2-yl)ethylamino}propan-2-yl]isoquinoline-6-sulfonamide hydrochloride] | ++ (maximum ocular hypotensive rate of 15% or more)
C[C@@H](CNCCc1ccccc1)NS(=O)(=O)c1ccc2cnccc2c1 [Example 24, (S)—N-{1-(phenethylamino)propan-2-yl}isoquinoline-6-sulfonamide dihydrochloride] | ++ (maximum ocular hypotensive rate of 15% or more)
C[C@H](CNCC(=O)c1ccccc1)NS(=O)(=O)c1ccc2cnccc2c1 [Example 104, (R)—N-{1-(2-oxo-2-phenylethylamino)propan-2-yl}isoquinoline-6-sulfonamide dihydrochloride] | ++ (maximum ocular hypotensive rate of 15% or more)
C[C@H](CNCCc1cccc(F)c1)NS(=O)(=O)c1ccc2cnccc2c1.Cl [Example 52, (R)—N-{1-(3-fluorophenethylamino)propan-2-yl}isoquinoline-6-sulfonamide hydrochloride] | ++ (maximum ocular hypotensive rate of 15% or more)
C[C@H](CNCC1CCC1)NS(=O)(=O)c1ccc2cnccc2c1.Cl [Example 16, (R)—N-{1-(cyclobutylmethylamino)propan-2-yl}isoquinoline-6-sulfonamide hydrochloride] | ++ (maximum ocular hypotensive rate of 15% or more)
C[C@H](CNCCc1ccccc1)NS(=O)(=O)c1ccc2c(N)nccc2c1.Cl [Example 109, (R)-1-amino-N-{1-(phenethylamino)propan-2-yl}isoquinoline-6-sulfonamide hydrochloride] | + (maximum ocular hypotensive rate of 5% or more and less than 15%)
